Source: patent US20200231562A1, “NOVEL MACROLIDE ANTIBIOTICS” (HELMHOLTZ-ZENTRUM FÜR INFEKTIONSFORSCHUNG GMBH, priority 2014, published 2020)
Values after ≈ are worked out from the molar mass of the structure shown. Like-named read-outs stand apart in the source and are kept apart here. Marks after values point to notes of the source that are not given here.

Columns and labels:
[1] = system: Staphylococcus aureus (MRSA) DSM-11822; test: MIC by microbroth dilution; type: cell-based; settings: Staphylococcus aureus, 16 h
Method: (§1) Bacterial strains. Bacterial wildtype strains used in susceptibility assays were either part of HZI's strain collection or purchased from the German Collection of Microorgansims and Cell Cultures (Deutsche Sammlung von Mikroorganismen und Zellkulturen, DSMZ).
(§2) Minimum inhibitory concentration (MIC) was determined by microbroth dilution. In brief, overnight cultures of bacteria (EBS medium) were diluted to OD600 0.01. Disciformycin A (1) or B (2) dissolved in DMSO was added directly to the cultures in 96-well plates (Sarstedt, flat bottom) in duplicate and the compound was tested in serial dilution. […] After 16 h incubation at 900 rpm and 30° C. on a microplate shaker (Titramax, Heidolph) absorbance at 600 nm was measured using a microplate reader (POLARstar Omega, BMG Labtech). MIC values were determined by sigmoidal curve fitting.

[2] = system: Pseudomonas aeruginosa DSM 50071; test: MIC by microbroth dilution; type: cell-based; settings: 16 h, 30° C., n.i. = no inhibition up to 67 μg/ml
Method: as §1, §2

[3] = system: S. aureus N315 wildtype (WT); test: Susceptibility (MIC) of S. aureus N315 wildtype; type: cell-based; settings: Staphylococcus aureus
[4] = system: S. aureus N315 mutant Mt50DscA.1; test: Susceptibility (MIC) of Disciformycin A-resistant mutant; type: cell-based; settings: Staphylococcus aureus
[5] = system: S. aureus N315 mutant Mt50DscA.2; test: as above; type: cell-based; settings: Staphylococcus aureus
[6] = system: S. aureus N315 mutant Mt50DscA.3; test: as above; type: cell-based; settings: Staphylococcus aureus
[7] = system: S. aureus N315 mutant Mt50DscA.4; test: as above; type: cell-based; settings: Staphylococcus aureus
[8] = system: S. aureus N315 mutant Mt50DscA.5; test: as above; type: cell-based; settings: Staphylococcus aureus
[9] = system: S. aureus N315 mutant Mt50DscA.6; test: as above; type: cell-based; settings: Staphylococcus aureus
[10] = system: S. aureus N315 mutant Mt50DscA.8; test: as above; type: cell-based; settings: Staphylococcus aureus
[11] = system: S. aureus N315 Mt50DscA.9; test: as above; type: cell-based; settings: Staphylococcus aureus
[12] = system: S. aureus N315 mutant Mt50DscA.10; test: as above; type: cell-based; settings: Staphylococcus aureus
[13] = system: S. aureus N315 mutant Mt50DscA.11; test: as above; type: cell-based; settings: Staphylococcus aureus
[14] = system: S. aureus Newman in PMA-differentiated human THP-1 cell line (macrophages); test: Intra-macrophage activity; type: cell-based; settings: at 8×MIC, 18 h, MOI 10, cfu counting
From the text: The PMA-differentiated human THP-1 cell line (macrophages) was used as cellular host for infection with S. aureus Newman at an MOI (multiplicity of infection) of 10. […] Intracellular bacteria were recovered and serial dilutions were streaked out on CASO-Agar for cfu counting. The reference drug rifampicin reduced the number of intracellular bacteria by ca. 4 logs (at 8×MIC).

[15] = system: primary monocytes from human peripheral blood; test: MTT assay, cytotoxic activity; type: cell-based; settings: incubation 24 or 48 hours
Method: (§3) The cytotoxic activity of gulmirecin A (3) and gulmirecin B (4) against human cells was evaluated in the well-established MTT assay using primary monocytes from human peripheral blood as well as transformed lung epithelial cell A-549 cell and leukemic Mono Mac 6 cells. Furthermore, 3 and 4 were tested against K-562, HUVEC, and HeLa cells.
Human primary monocytes were isolated from leukocyte concentrates, obtained from the Institute of Transfusion Medicine at the University Hospital Jena, Germany. The concentrates were prepared from the blood of healthy adult human donors who had not taken any anti-inflammatory medication for the 10 days prior to blood donation, as described. In brief, freshly withdrawn peripheral blood was pretreated with citrate-phosphate-dextrose solution as anticoagulant and processed with the 2C+ protocol of the Atreus Whole Blood Processing System (Terum BCT). Peripheral blood mononuclear cells (PBMC) were isolated by dextran sedimentation and centrifugation on LSM 1077 lymphocyte separation medium (PAA Laboratories). For isolation of monocytes, the PBMC were washed twice with ice-cold phosphate buffered saline (PBS) and plated (density 2×10^7 cells/ml) in culture flasks (Greiner Bio-One) containing PBMC medium (RPMI 1640 medium supplemented with 100 U/ml penicillin, 100 μg/ml streptomycin and 2 mM L-glutamine) for 1.5 hours at 37° C., 5% CO2. Non-adherent cells were removed; adherent monocytes were scraped, washed with ice-cold PBS and resuspended in ice-cold PBS with a purity of >85%, defined by forward- and side-light scatter properties and detection of the CD14 surface molecule by flow cytometry (BD FACS Calibur). […]
Cells (3×10^5 Mono Mac 6, 1×10^5 A-549 cells, or 2×10^6 monocytes per well) were seeded in a 96-well plate in the respective medium (100 μl/well). […] Absorbance of each well was measured at 570 nm in a Multiskan™ microplate spectrophotometer (Thermo Scientific).

[16] = system: transformed lung epithelial A-549 cells; test: MTT assay, cytotoxic activity; type: cell-based, human; settings: incubation 24 or 48 hours
Method: as §3
(§4) The human monocytic cell line Mono Mac 6 was cultured in RPMI 1640 medium supplemented with FCS (10%, v/v), penicillin (100 U/ml), streptomycin (100 μg/ml), insulin (10 μg/ml), oxaloacetic acid (1 mM), sodium pyruvate (1 mM), and 1× non-essential amino acids at 37° C. and 5% CO2. A-549 cells (DSM ACC-107) were cultured in DMEM high glucose (4.5 g/l) medium supplemented with FCS (10% v/v), penicillin (100 U/ml) and streptomycin (100 μg/ml) at 37° C. in a 5% CO2 incubator. K-562 (DSM ACC 10) and HeLa cells (DSM ACC 57) were grown in RPMI 1640, whereas cells of HUVEC (ATCC CRL-1730) were cultured in DMEM medium. The respective media were supplemented with ultraglutamine 1 (10 ml/l), gentamicin sulfate (500 μl/l), and FCS (10% v/v).
(§5) Cells (3×10^5 Mono Mac 6, 1×10^5 A-549 cells, or 2×10^6 monocytes per well) were seeded in a 96-well plate in the respective medium (100 μl/well). Monocytes were allowed to adhere for 1.5 hours (37° C., 5% CO2) prior to treatment. Test compounds (0.3% DMSO as vehicle) were added to each well and samples were incubated for 48 hrs. Then, 20 μl of thiazolyl blue tetrazolium bromide (MTT, 5 mg/ml PBS) were added, and the incubation was continued at 37° C., 5% CO2 until blue staining of the vehicle control. Formazan formation was stopped by adding 100 μl of lysis buffer (SDS, 10%, w/v in 20 mM HCl) and samples were shaken overnight. Absorbance of each well was measured at 570 nm in a Multiskan™ microplate spectrophotometer (Thermo Scientific).

[17] = system: leukemic Mono Mac 6 cells; test: MTT assay, cytotoxic activity; type: cell-based, human; settings: incubation 24 or 48 hours
Method: as §3, §4
as §5, with “Test compounds (0.3% DMSO as vehicle) were added to each well and samples were incubated for 48 hrs.” left out

Bacillus subtilis DSM 10 = test: MIC by microbroth dilution; type: cell-based; settings: 16 h, 30° C., n.i. = no inhibition up to 67 μg/ml
Method: as §1, §2

[18] = system: Chromobacterium violaceum DSM 30191; test: MIC by microbroth dilution; type: cell-based; settings: 16 h, 30° C., n.i. = no inhibition up to 67 μg/ml
Method: as §1, §2

[19] = system: Escherichia coli DSM 1116; test: MIC by microbroth dilution; type: cell-based; settings: 16 h, 30° C., n.i. = no inhibition up to 67 μg/ml
Method: as §1, §2

[20] = system: Micrococcus luteus DSM 20030; test: MIC by microbroth dilution; type: cell-based; settings: 16 h, 30° C., n.i. = no inhibition up to 67 μg/ml
Method: as §1, §2

[21] = system: Mycobacterium diemhoferi DSM 43524; test: MIC by microbroth dilution; type: cell-based; settings: 16 h, 30° C., n.i. = no inhibition up to 67 μg/ml
Method: as §1, §2

[22] = system: Mycobacterium sp. DSM 43270; test: MIC by microbroth dilution; type: cell-based; settings: 16 h, 30° C., n.i. = no inhibition up to 67 μg/ml
Method: as §1, §2

[23] = system: Nocardioides simplex DSM 20130; test: MIC by microbroth dilution; type: cell-based; settings: 16 h, 30° C., n.i. = no inhibition up to 67 μg/ml
Method: as §1, §2

[24] = system: Paenibacillus polymyxa DSM 36; test: MIC by microbroth dilution; type: cell-based; settings: 16 h, 30° C., n.i. = no inhibition up to 67 μg/ml
Method: as §1, §2

[25] = system: Staphylococcus aureus DSM 346; test: MIC by microbroth dilution; type: cell-based; settings: 16 h, 30° C., n.i. = no inhibition up to 67 μg/ml
Method: as §1, §2

CN[C@H](CC(C)C)C(=O)N[C@H]1C(=O)N[C@@H](CC(N)=O)C(=O)N[C@H]2C(=O)N[C@H]3C(=O)N[C@H](C(=O)N[C@H](C(=O)O)c4cc(O)cc(O)c4-c4cc3ccc4O)[C@H](O)c3ccc(c(Cl)c3)Oc3cc2cc(c3O[C@@H]2O[C@H](CO)[C@@H](O)[C@H](O)[C@H]2O[C@H]2C[C@](C)(N)[C@H](O)[C@H](C)O2)Oc2ccc(cc2Cl)[C@H]1O [Vancomycin, reference compound]
MIC [1]: 830 ng/mL (≈ 573 nM)

Gentamycin [reference compound]
MIC [2]: 42.0^[b] μg/ml

CO[C@H]1/C=C/O[C@@]2(C)Oc3c(C)c(O)c4c(O)c(c(/C=N/N5CCN(C)CC5)c(O)c4c3C2=O)NC(=O)/C(C)=C\C=C\[C@H](C)[C@H](O)[C@@H](C)[C@@H](O)[C@@H](C)[C@H](OC(C)=O)[C@@H]1C [rifampicin, reference compound]
MIC ([3]; S. aureus N315 WT, read-out: MIC): 3 ng/mL (≈ 3.65 nM)
MIC [4]: 3 ng/mL (≈ 3.65 nM)
MIC [5]: 5 ng/mL (≈ 6.08 nM)
MIC [6]: 3 ng/mL (≈ 3.65 nM)
MIC [7]: 1 ng/mL (≈ 1.22 nM)
MIC [8]: 1 ng/mL (≈ 1.22 nM)
MIC [9]: 1 ng/mL (≈ 1.22 nM)
MIC [10]: 1 ng/mL (≈ 1.22 nM)
MIC [11]: 1 ng/mL (≈ 1.22 nM)
MIC [12]: 1 ng/mL (≈ 1.22 nM)
MIC [13]: 1 ng/mL (≈ 1.22 nM)
reduction of the number of intracellular bacteria [14]: ca. 4 logs

C/C=C(/C)[C@H]1C/C=C(\C)[C@@H](O[C@H]2O[C@H](CO)[C@@H](O)[C@@H]2O)[C@H](OC(=O)CC(C)C)C(=O)C[C@@H](OC)[C@H](C)C(=O)O1 [Compound 5, disciformycin C]
MIC [3]: 4000 ng/mL (≈ 7190 nM)
MIC [4]: > 64000 ng/mL
MIC [6]: > 64000 ng/mL
MIC [8]: 32000 ng/mL (≈ 57500 nM)
MIC [9]: > 64000 ng/mL

CN[C@@H]1C[C@H]2O[C@@](C)([C@@H]1OC)n1c3ccccc3c3c4c(c5c6ccccc6n2c5c31)C(=O)NC4 [staurosporine, reference compound]
cell viability / cytotoxicity (MTT) [15]: highly cytotoxic
cell viability / cytotoxicity (MTT) [16]: highly cytotoxic
cell viability / cytotoxicity (MTT) [17]: highly cytotoxic

C/C=C(/C)[C@H]1C/C=C(\C)[C@@H](O[C@H]2O[C@H](CO)[C@@H](O)[C@@H]2O)[C@H](OC(=O)CC(C)C)C(=O)C[C@@H](SC)[C@H](C)C(=O)O1 [Compound 6, disciformycin D]
MIC [3]: 500 ng/mL (≈ 873 nM)
MIC [4]: 32000 ng/mL (≈ 55900 nM)
MIC [6]: 64000 ng/mL (≈ 112000 nM)
MIC [8]: 4000 ng/mL (≈ 6980 nM)
MIC [9]: 32000 ng/mL (≈ 55900 nM)

CN(C)[C@@H]1C(O)=C(C(N)=O)C(=O)[C@@]2(O)C(O)=C3C(=O)c4c(O)cccc4[C@@](C)(O)[C@H]3[C@H](O)[C@@H]12.Cl [Oxytetracyclin hydrochloride, reference compound]
MIC (Bacillus subtilis DSM 10): 4.2^[a] μg/ml
MIC [18]: 0.83^[a] μg/ml
MIC [19]: 0.83^[a] μg/ml
MIC [20]: 0.42^[a] μg/ml
MIC [21]: ≤0.052^[a] μg/ml
MIC [22]: 0.52^[a] μg/ml
MIC [23]: 3.3^[a] μg/ml
MIC [24]: 1.7^[a] μg/ml
MIC [25]: 0.21^[a] μg/ml
